Measured values taken from patent publication US11883538B2, “Sustained release compositions comprising micronized tolcapone” (Som Innovation Biotech, S.L., priority 2016, dated 2024).

Assay: Determination of tolcapone's particle size (laser analyzer MASTERSIZER 2000, Ph. Eur. 2.9.31)
Assay type: physicochemical
Conditions: wet dispersion in water for injection
Excerpt: Determination of Tolcapone's Particle Size
Particle size measurement (Dv,0.1, Dv,05, Dv,0.9 and Dv,1.0) may be determined according to the general method described in section 2.9.31 of the European Pharmacopeia in particular using a particle size laser analyzer MASTERSIZER 2000 from Malvern featuring a wet dispersion unit HYDRO 2000 SM for small volumes of sample.
Material: • Sample: Tolcapone suspension • Refraction index: 1.59 (default) • Dispersant: water for injection • Refraction index: 1.33
Cycles: • Measurements for each aliquot: 3 • Lag time: 12 s • Pump stirring velocity: 2500 rpm
Measuring Time: • Measure: 12 s (in triplicates) • Measure snaps: 12000 • Background: 10 s • Background snaps: 10000
Three readings are made for each sample.
Thus, Dv,0.9 lower than 54.33 μm that 90% of the volume of the particles is in particles which are smaller 54.33 μm.

Dv,0.1 [μm] | Dv,0.5 [μm] | Dv,0.9 [μm] | Dv,1.0 [μm] | SMILES
<6.09 | <17.62 | <54.33 | <316.23 | Cc1ccc(C(=O)c2cc(O)c(O)c([N+](=O)[O-])c2)cc1 [micronized tolcapone, (3,4-dihydroxy-5-nitrophenyl)(4-methylphenyl)methanone]
<22.45 | <87.23 | <307.86 | <1096.48 | Cc1ccc(C(=O)c2cc(O)c(O)c([N+](=O)[O-])c2)cc1 [non-micronized tolcapone, (3,4-dihydroxy-5-nitrophenyl)(4-methylphenyl)methanone]
